Test results published in the NIST ThermoML archive (doi:10.1021/je049973v).
± gives the expanded uncertainty stated by the source.

Conditions: Liquid; for mass density: Vibrating tube method; for speed of sound: Pulse-echo method

Work on `CCCCCCCCCCCCCCCCCc1ccccc1` [heptadecane, 1-phenyl-] yielded a mass density (343.15 K, 15000 kPa) of 830.75 ± 0.87 kg/m3, a speed of sound (343.15 K, 20000 kPa) of 1387.3 ± 3.5 m/s and a mass density (343.15 K, 20000 kPa) of 833.93 ± 0.88 kg/m3. The mass density (343.15 K, 25000 kPa) was 836.75 ± 0.89 kg/m3, the speed of sound (343.15 K, 30000 kPa) was 1432.3 ± 3.6 m/s and the mass density (343.15 K, 30000 kPa) was 839.62 ± 0.9 kg/m3. For the same molecule, the mass density (343.15 K, 35000 kPa) was 842.4 ± 0.91 kg/m3, the speed of sound (343.15 K, 40000 kPa) was 1475.5 ± 3.6 m/s and the mass density (343.15 K, 40000 kPa) was 845.11 ± 0.92 kg/m3. The mass density (343.15 K, 45000 kPa) was 847.75 ± 0.94 kg/m3, the speed of sound (343.15 K, 50000 kPa) was 1515.3 ± 3.7 m/s and the mass density (343.15 K, 50000 kPa) was 850.31 ± 0.95 kg/m3. It also gave a mass density (343.15 K, 55000 kPa) of 852.73 ± 0.96 kg/m3, a speed of sound (343.15 K, 60000 kPa) of 1553.3 ± 3.8 m/s and a mass density (343.15 K, 60000 kPa) of 855.09 ± 0.97 kg/m3. For the same molecule, the speed of sound (343.15 K, 70000 kPa) was 1589.5 ± 3.8 m/s, the speed of sound (343.15 K, 80000 kPa) was 1624.1 ± 3.9 m/s and the speed of sound (343.15 K, 90000 kPa) was 1657.2 ± 3.9 m/s. For the same molecule, the speed of sound (343.15 K, 100000 kPa) was 1688 ± 4 m/s, the speed of sound (343.15 K, 110000 kPa) was 1719.2 ± 4 m/s and the speed of sound (343.15 K, 120000 kPa) was 1748.7 ± 4.1 m/s. For the same molecule, the speed of sound (343.15 K, 130000 kPa) was 1777.4 ± 4.2 m/s, the speed of sound (343.15 K, 140000 kPa) was 1805 ± 4.2 m/s and the speed of sound (343.15 K, 150000 kPa) was 1832 ± 4.2 m/s. For the same molecule, the speed of sound (353.15 K, 100 kPa) was 1255.2 ± 3.3 m/s, the mass density (353.15 K, 100 kPa) was 814.43 ± 0.84 kg/m3 and the mass density (353.15 K, 5000 kPa) was 817.93 ± 0.85 kg/m3. The speed of sound (353.15 K, 10000 kPa) was 1308.6 ± 3.3 m/s, the mass density (353.15 K, 10000 kPa) was 821.35 ± 0.86 kg/m3 and the mass density (353.15 K, 15000 kPa) was 824.69 ± 0.87 kg/m3. It also gave a speed of sound (353.15 K, 20000 kPa) of 1359.3 ± 3.4 m/s, a mass density (353.15 K, 20000 kPa) of 827.9 ± 0.88 kg/m3 and a mass density (353.15 K, 25000 kPa) of 830.86 ± 0.89 kg/m3. For the same molecule, the speed of sound (353.15 K, 30000 kPa) was 1405.3 ± 3.5 m/s, the mass density (353.15 K, 30000 kPa) was 833.85 ± 0.9 kg/m3 and the mass density (353.15 K, 35000 kPa) was 836.9 ± 0.91 kg/m3. The speed of sound (353.15 K, 40000 kPa) was 1448.5 ± 3.6 m/s, the mass density (353.15 K, 40000 kPa) was 839.55 ± 0.92 kg/m3 and the mass density (353.15 K, 45000 kPa) was 842.1 ± 0.93 kg/m3. The speed of sound (353.15 K, 50000 kPa) was 1489.5 ± 3.7 m/s, the mass density (353.15 K, 50000 kPa) was 844.78 ± 0.95 kg/m3 and the mass density (353.15 K, 55000 kPa) was 847.34 ± 0.96 kg/m3. For the same molecule, the speed of sound (353.15 K, 60000 kPa) was 1528.3 ± 3.7 m/s, the mass density (353.15 K, 60000 kPa) was 849.77 ± 0.97 kg/m3 and the speed of sound (353.15 K, 70000 kPa) was 1564.8 ± 3.8 m/s. The speed of sound (353.15 K, 80000 kPa) was 1600.1 ± 3.8 m/s, the speed of sound (353.15 K, 90000 kPa) was 1633.4 ± 3.9 m/s and the speed of sound (353.15 K, 100000 kPa) was 1665.5 ± 4 m/s. It also gave a speed of sound (353.15 K, 110000 kPa) of 1696.9 ± 4 m/s, a speed of sound (353.15 K, 120000 kPa) of 1726.9 ± 4.1 m/s and a speed of sound (353.15 K, 130000 kPa) of 1755.8 ± 4.1 m/s. It also gave a speed of sound (353.15 K, 140000 kPa) of 1783.8 ± 4.2 m/s, a speed of sound (353.15 K, 150000 kPa) of 1811.1 ± 4.2 m/s and a speed of sound (363.15 K, 100 kPa) of 1223.6 ± 3.2 m/s. For the same molecule, the mass density (363.15 K, 100 kPa) was 807.8 ± 0.84 kg/m3, the mass density (363.15 K, 5000 kPa) was 811.3 ± 0.84 kg/m3 and the speed of sound (363.15 K, 10000 kPa) was 1278.7 ± 3.3 m/s. For the same molecule, the mass density (363.15 K, 10000 kPa) was 815.14 ± 0.85 kg/m3, the mass density (363.15 K, 15000 kPa) was 818.57 ± 0.86 kg/m3 and the speed of sound (363.15 K, 20000 kPa) was 1330.3 ± 3.4 m/s. The mass density (363.15 K, 20000 kPa) was 821.81 ± 0.87 kg/m3, the mass density (363.15 K, 25000 kPa) was 824.97 ± 0.88 kg/m3 and the speed of sound (363.15 K, 30000 kPa) was 1378 ± 3.5 m/s. For the same molecule, the mass density (363.15 K, 30000 kPa) was 828 ± 0.9 kg/m3, the mass density (363.15 K, 35000 kPa) was 830.94 ± 0.91 kg/m3 and the speed of sound (363.15 K, 40000 kPa) was 1422.2 ± 3.5 m/s. It also gave a mass density (363.15 K, 40000 kPa) of 833.81 ± 0.92 kg/m3, a mass density (363.15 K, 45000 kPa) of 836.5 ± 0.93 kg/m3 and a speed of sound (363.15 K, 50000 kPa) of 1464 ± 3.6 m/s. It also gave a mass density (363.15 K, 50000 kPa) of 839.26 ± 0.95 kg/m3, a mass density (363.15 K, 55000 kPa) of 841.95 ± 0.96 kg/m3 and a speed of sound (363.15 K, 60000 kPa) of 1503.3 ± 3.7 m/s. It also gave a mass density (363.15 K, 60000 kPa) of 844.41 ± 0.97 kg/m3, a speed of sound (363.15 K, 70000 kPa) of 1541.1 ± 3.7 m/s and a speed of sound (363.15 K, 80000 kPa) of 1576.4 ± 3.8 m/s. For the same molecule, the speed of sound (363.15 K, 90000 kPa) was 1610.7 ± 3.9 m/s, the speed of sound (363.15 K, 100000 kPa) was 1643.4 ± 3.9 m/s and the speed of sound (363.15 K, 110000 kPa) was 1674.6 ± 4 m/s. It also gave a speed of sound (363.15 K, 120000 kPa) of 1705 ± 4 m/s, a speed of sound (363.15 K, 130000 kPa) of 1734.4 ± 4.1 m/s and a speed of sound (363.15 K, 140000 kPa) of 1763.3 ± 4.1 m/s. The speed of sound (363.15 K, 150000 kPa) was 1790 ± 4.2 m/s, the speed of sound (373.15 K, 100 kPa) was 1193 ± 3.2 m/s and the mass density (373.15 K, 100 kPa) was 801.11 ± 0.83 kg/m3. For the same molecule, the mass density (373.15 K, 5000 kPa) was 805.07 ± 0.84 kg/m3, the speed of sound (373.15 K, 10000 kPa) was 1249.5 ± 3.3 m/s and the mass density (373.15 K, 10000 kPa) was 808.86 ± 0.85 kg/m3. The mass density (373.15 K, 15000 kPa) was 812.48 ± 0.86 kg/m3, the speed of sound (373.15 K, 20000 kPa) was 1302.6 ± 3.3 m/s and the mass density (373.15 K, 20000 kPa) was 815.93 ± 0.87 kg/m3. For the same molecule, the mass density (373.15 K, 25000 kPa) was 819.17 ± 0.88 kg/m3, the speed of sound (373.15 K, 30000 kPa) was 1351.4 ± 3.4 m/s and the mass density (373.15 K, 30000 kPa) was 822.4 ± 0.89 kg/m3. For the same molecule, the mass density (373.15 K, 35000 kPa) was 825.42 ± 0.91 kg/m3, the speed of sound (373.15 K, 40000 kPa) was 1396.8 ± 3.5 m/s and the mass density (373.15 K, 40000 kPa) was 828.43 ± 0.92 kg/m3. It also gave a mass density (373.15 K, 45000 kPa) of 831.28 ± 0.93 kg/m3, a speed of sound (373.15 K, 50000 kPa) of 1439.2 ± 3.6 m/s and a mass density (373.15 K, 50000 kPa) of 834.03 ± 0.95 kg/m3. For the same molecule, the mass density (373.15 K, 55000 kPa) was 836.72 ± 0.96 kg/m3, the speed of sound (373.15 K, 60000 kPa) was 1479.7 ± 3.6 m/s and the mass density (373.15 K, 60000 kPa) was 839.37 ± 0.98 kg/m3. For the same molecule, the speed of sound (373.15 K, 70000 kPa) was 1517.7 ± 3.7 m/s, the speed of sound (373.15 K, 80000 kPa) was 1553.8 ± 3.8 m/s and the speed of sound (373.15 K, 90000 kPa) was 1588.6 ± 3.8 m/s. It also gave a speed of sound (373.15 K, 100000 kPa) of 1621.8 ± 3.9 m/s, a speed of sound (373.15 K, 110000 kPa) of 1653.6 ± 3.9 m/s and a speed of sound (373.15 K, 120000 kPa) of 1684.3 ± 4 m/s. For the same molecule, the speed of sound (373.15 K, 130000 kPa) was 1713.8 ± 4 m/s, the speed of sound (373.15 K, 140000 kPa) was 1742.7 ± 4.1 m/s and the speed of sound (373.15 K, 150000 kPa) was 1770.5 ± 4.1 m/s.
